Experimental data taken from US10487362B2, “Methods for diagnosing cancer based on small nucleolar RNA HBII-52” (Health Research, Inc., priority 2013, dated 2019).
Entries after “also recorded” stand apart in the source; their conditions may differ.

Key:
TRAMP-C2G cells = assay: Cell viability of TRAMP-C2G stable cell lines (Cell-Titer Fluor, 72 h growth assay); assay type: cell-based, mouse; conditions: 72 h culture; for influence on the effect of MBII-52 or SB 242,084 on cell viability: TRAMP-C2G cells
Method: FIG. 10. MBII-52 was stably overexpressed (>60-fold overexpression) in TRAMP-C2G cells from the pSilencer CMV 4.1 vector. Cell viability was measured (n=5, error bars are SEM) after 72 h culture using Cell-Titer Fluor cell viability assay and normalized to scramble-transfected, vehicle-treated control. One-sample t-tests were performed to compare experimental groups with scramble/vehicle control. Two-tailed t-tests were used to compare the two SB 242,084 treatment groups with each other. * indicated p<0.05 for either test. MBII-52 increases cell viability, while SB 242,084 inhibits it.
To test the hypothesis that HB/MBII-52 can activate 5-HT2cR and promote cancer progression stable cell lines were generated from TRAMP C2D and C2G cells that overexpress MBII-52 from pSilencer 4.1 CMV vector along with control cells expressing a scrambled RNA that has no homology to the mouse or human genome.
Numerous downstream pathways activated by 5-HT2cR have been studied in neuronal cell lines with a focus on neurological development and disease. The pathways relevant to this disclosure are Erk, PI3-K/Akt and RhoA (36,39). Each has previously been studied and targeted in PCa and other cancers. Activation of these pathways during PCa progression or in vitro can directly propagate a transition to malignancy. For example, Erk upregulates hypoxia inducible factor 1 alpha (HIF1α) and therefore vascular endothelial growth factor (Vegf) in response to hypoxia in rats (40). Vegf secretion also appears to be regulated by Erk in LNCaP cell lines (41). Erk is also able to transactivate the androgen receptor (AR) independent of androgen, by phosphorylating steroid receptor co-activator-1 (SRC-1), which then binds AR resulting in ligand-independent activation of AR. Therefore, Erk directly contributes to androgen-independence (41). […] Indeed, stable cell lines overexpressing MBII-52 appeared more proliferative then scramble control stable cell lines in a 72 h growth assay, after which viability was measured using Cell-Titer Fluor Assay (n=5) (FIG. 10).

DU145 clones DU6 and DU2 = assay: Cell viability of DU145 HBII-52 clones in response to 5-HT; assay type: cell-based, human; conditions: high concentrations; HBII-52 overexpressing DU6 compared to low expressing DU2; 3 independent experiments
Description: FIG. 17. Overexpression of HBII-52 affects cell viability in response to 5-HT treatment. […] Data are represented as the average+/−SEM of 3 independent experiments

MBII-52 = conditions: C2G cells, serum starvation 72 h, DHT supplementation
Description: Serum starvation induces NED of PCa cell lines (25). […] Furthermore, NED is associated with CR-PCa in vivo, supporting the importance of factors that induce NED as initiators of transition to androgen-independence (26).

5-HT2cR [1] = molecular target: T1, 5-HT2cR (Homo sapiens, UniProt P28335); conditions: cited from earlier work
T1 sequence (P28335 33-458): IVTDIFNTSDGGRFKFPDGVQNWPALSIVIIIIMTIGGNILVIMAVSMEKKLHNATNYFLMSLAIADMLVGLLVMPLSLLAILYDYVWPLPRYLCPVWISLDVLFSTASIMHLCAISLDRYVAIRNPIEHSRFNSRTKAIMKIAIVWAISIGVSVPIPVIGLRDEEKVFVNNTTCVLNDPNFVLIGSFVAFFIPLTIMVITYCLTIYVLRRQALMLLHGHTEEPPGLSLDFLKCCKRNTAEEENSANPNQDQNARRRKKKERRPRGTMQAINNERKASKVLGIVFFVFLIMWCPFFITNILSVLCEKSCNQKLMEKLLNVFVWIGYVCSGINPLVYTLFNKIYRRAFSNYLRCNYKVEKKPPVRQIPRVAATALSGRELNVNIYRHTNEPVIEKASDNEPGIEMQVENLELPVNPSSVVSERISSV

[2] = compared with SB206,553; cited from earlier work
[3] = tested on: Human Prostate cancer cell lines; assay: Cell viability of human prostate cancer cell lines treated for 72 h; assay type: cell-based; conditions: 72 h treatment, 3 independent experiments
Method: FIG. 11. Human Prostate cancer cell lines were treated with SB 242,084 for 72 h. […] Data is the average of 3 independent experiments with error bars indicating SEM.
(§1) Our tests indicate that SB 242,084 is growth-inhibitory in human PCa cell lines (FIG. 11).

5-HT2cR [4] = molecular target: T1, 5-HT2cR; conditions: in vitro and in vivo; cited from earlier work
PC3 cells = assay: Growth inhibition under serum starvation, PC3; assay type: cell-based, human; conditions: PC3, serum starvation vs serum
Description: (§2) FIG. 12. […] Data is representative of multiple independent experiments.
as §1

Erk = conditions: cited from earlier work
LNCaP-C4-2 cells = assay: Growth inhibition under serum starvation, LNCaP-C4-2; assay type: cell-based, human; conditions: LNCaP-C4-2, serum starvation vs serum
Description: as §2, §1

SMILES | influence on the effect of MBII-52 or SB 242,084 on cell viability (TRAMP-C2G cells) | cytotoxic response (cell viability) (DU145 clones DU6 and DU2) | MBII-52 expression increase caused by serum starvation (MBII-52) | cell viability (TRAMP-C2G cells; scramble and MBII-52 overexpressing TRAMP-C2G cells, n=5) | potency relative to SB 206,553 (5-HT2cR [1]) | selectivity for 5-HT2cR over 5-HT2aR (5-HT2cR [1]) | selectivity for 5-HT2cR over 5-HT2bR (5-HT2cR [1]) | resistance to metabolic methylation [2] | cell viability / growth inhibition [3] | antagonist activity (5-HT2cR [4]) | growth inhibition upon serum starvation (PC3 cells) | activation of downstream targets including Erk (Erk) | growth inhibition upon serum starvation (LNCaP-C4-2 cells)
NCCc1c[nH]c2ccc(O)cc12 [5-HT, serotonin] | Neither DHT nor 5-HT appear to have much influence | increased cytotoxic response |  |  |  |  |  |  |  |  |  |  | 
C[C@]12CCC(=O)C[C@@H]1CC[C@@H]1[C@@H]2CC[C@]2(C)[C@@H](O)CC[C@@H]12 [DHT, 5α-dihydrotestosterone] | Neither DHT nor 5-HT appear to have much influence |  | almost completely block the increase in MBII-52; also recorded: abrogates the observed upregulation of MBII-52 |  |  |  |  |  |  |  |  |  | 
Cc1cc2c(cc1Cl)N(C(=O)Nc1ccc(Oc3cccnc3C)nc1)CC2 [SB 242,084] |  |  |  | inhibits; also recorded: effective in both scramble and MBII-52 overexpressing cells | increased potency | greater than 100 fold | greater than 100 fold | more resistant to the metabolic methylation than SB206,553 | dose-dependent decrease in cell viability levels; also recorded: growth-inhibitory | potent antagonist activity | significantly (p<0.05) further improved | inhibits activation | significantly (p<0.05) further improved
